Data taken from PMC2628638, “Catalytic inhibition of topoisomerase II by a novel rationally designed ATP-competitive purine analogue” (BMC Chemical Biology, 2009).

Key:
Assay type in all cases: cell-based
HeLa T-Rex cells = experiment: Gamma-H2AX In-Cell Western assay (doxorubicin-induced DNA damage); conditions: 30 minutes pretreatment, then 1 μM doxorubicin for 2 hours; read-out: IC50, suppression of doxorubicin-induced γH2AX signal
Procedure: In-Cell Western analysis was carried out as follows. HeLa T-Rex cells were seeded at the cell density of 15 × 10^3 cells per well in black 96-well plates (Greiner Bio-one Vacuette, St Gallen, Switzerland). The day post-seeding, cells were pretreated with increasing concentrations of either ICRF-193, QAP 1 or vehicle (DMSO) for 30 minutes followed by a 2 hours treatment with 1 μM of doxorubicin, or were only treated with the same concentrations of ICRF-193, QAP 1 or vehicle (DMSO) for 2 hours. Treatments were done in triplicate. […] Finally, cells were washed 4 times with 50 μl per well of PBS containing 0.1% Tween-20 for 3 minutes, liquid was removed and plates were kept at 4°C until reading. γH2AX signals were read using the LI-COR Odyssey Infrared Imager with the Odyssey v1.1 software using the 800 nm channel. Blank values correspond to non-specific γH2AX signal detected in wells without primary antibody staining. […] The resulting values for each sample were normalized to the DNA quantity by measuring the corresponding TO-PRO-3 iodide signals. The TO-PRO-3 iodine signals were detected by using the 700 nm channel. The percentage of γH2AX signal was determined for each concentration of ICRF193 and QAP 1 with or without doxorubicin treatment by setting the value for the treatment with vehicle and 1 μM doxorubicin to 100%. […]

HL-60 cells [1] = experiment: Proliferation assay over 72 hours; conditions: read-out: half-maximal growth inhibitory concentration (GI50)
[2] = test system: HCC1937 BRCA1 mutant and HCC1937 BRCA1 reconstituted cells; experiment: Clonogenic growth assay (WST-1, colony counting); conditions: continuous treatment for 9 days, WST-1 and colony numbers
Procedure: HCC1937 BRCA1 mutant and HCC1937 BRCA1 reconstituted breast ductal carcinoma cells were cultured in RPMI-1640 medium supplemented with 10% fetal calf serum, 2 mM L-glutamine, 1 mM sodium pyruvate, 4.5 g/l glucose and 1% (v/v) penicillin/streptomycin. Status of BRCA1 was corroborated by immunoprecipitation using 50 μg nuclear extracts and 1 μg mouse monoclonal antibody MS110 (ab16780, Abcam Inc., Cambridge, MA), which is directed towards the amino-terminus of the protein. Blots were probed with BRCA1 carboxy-terminal specific mouse monoclonal antibody D9 (sc-6954, Santa Cruz Biotechnologies, Santa Cruz, CA) and, following stripping, re-probed with antibody MS110. For assays, 5000 cells in 3 ml medium were seeded per well of 6 well plates in duplicates. The day after, vehicle (DMSO) or compounds were added. After one week medium was exchanged and vehicle or compounds were re-added for an additional two days. To assess proliferation the medium in each well was replaced with 1 ml medium containing 100 μl WST-1 reagent and incubation for 20 minutes at 37°C. Of each sample 110 μl supernatant were transferred into a 96 well plate and the OD was read at 450 nm (filter at 630 nm) on a SpectraMax Plus microtiter plate reader using SoftMax Pro software (Molecular Devices). For background correction, the blank value consisted of 100 μl medium containing 10 μl WST-1. Thereafter, colonies were stained by removing medium, washing cells once with PBS and incubation with 1 ml crystal violet solution for 30 minutes at room temperature. Cells were washed twice with PBS and colonies were counted using an Artec Counter (Model 880, Artec, Dyntatech Laboratories Inc.) with diameter cut-off set to 0.2 mm. Data were expressed as growth or colony numbers relative to vehicle control treatments (100%).

HL-60 cells [3] = experiment: Gamma-H2AX Western blot (doxorubicin-induced DNA damage); conditions: both drugs 5 μM, 30 minutes pretreatment, doxorubicin 2 hours
Procedure: Histone extracts of HL-60 or HeLa T-Rex cells for Western blot analysis were prepared as follows: Following treatments, medium was removed and cells were collected/washed with PBS. Cells were centrifuged for 5 minutes at 1500 rpm and 4°C and the cell pellet was resuspended in 300 μl of ice-cold hypotonic buffer (see above). Cells were transferred in a 1.5 ml Eppendorf tube and incubated for 15 minutes on ice. Thereafter, NP-40 was added to the cells to a final concentration of 0.6% (v/v) and cells were disrupted by pumping 10–15 times through a 1 ml syringe connected to a 23-gauge needle. The extract was centrifuged for 10 minutes at 8000 rpm and 4°C. The supernatant (cytoplasmic fraction) was removed and the nuclear pellet was washed once with 500 μl of ice-cold hypotonic buffer for 4 minutes at 8000 rpm. Nuclear proteins were extracted by addition of 22 μl sample buffer and boiling for 3 minutes. Samples were resolved by 15% SDS-PAGE following transfer to PVDF membrane. After blocking, membranes were incubated either with anti-γH2AX (clone JBW301, 05–636, Upstate, Charlottesville, VA, diluted 1:1000 in PBS containing 0.1% Tween 20 and 5% milk) or histone H3 (catalog number 9715, Cell Signaling Technologies Inc., Beverly, MA, diluted 1:1000 in TBS containing 0.1% Tween 20 and 5% milk) antibodies overnight at 4°C.

HL-60 cells [4] = experiment: Chromosome segregation assay (chromosome spreads)
Procedure: HL-60 cells were treated overnight for 16 hours with 2 μg/ml aphidicolin (Sigma-Aldrich corporation, St. Louis, MO) and released by washing twice PBS and resuspending into fresh medium. After 6 hours release the cells were treated with 1 mM caffeine (Lancaster Synthesis, Heysham, Lancashire, UK) and with catalytic topoisomerase II inhibitor or vehicle for 2 hours. Cells were washed once with PBS and incubated with 56 mM KCl hypotonic solution for 30 minutes. Cells were pelleted and carefully resuspended in Carnoy's fixative. Cells were pelleted as above, supernatant was removed and cells were resuspended again in 2 ml fixative. Chromosome spreads were prepared by dropping 50 μl cell suspension onto microscopy slides. The slides were allowed to dry and then stained for 10 seconds in Hoechst 33342 dye (Molecular Probes, Eugene, Oregon, prepared 1:1000 in PBS from 10 mg/ml stock). After drying, mounting media (Vectashield®, Vector Laboratories, Burlingame, CA) and a cover slip were added. Samples were observed using an immersion oil lens (100 ×, Nikon, Plan Apo VC) by fluorescence microscopy (Nikon Eclipse, E600) in the DAPI channel. Images were acquired using analySIS® software (Soft Imaging System GmbH, Münster, Germany). Representative images were converted to grayscale, inverted and contrast adjusted with Adobe Photoshop. Mitotic cells were categorized as described.

For ICRF-193 [reference compound], the IC50 (HeLa T-Rex cells) was ~200 nM, the GI50 (HL-60 cells [1]) was 250 nM and the “sensitivity of BRCA1 mutant versus BRCA1 reconstituted HCC1937 cells” value [2] was “somewhat more sensitive”. The “effect of pretreatment on doxorubicin-induced γH2AX (Western blot)” value (HL-60 cells [3]) was “suppressed”, the “chromosome segregation at mitosis” value (HL-60 cells [4]; 400 nM with 1 mM caffeine for 2 hours after 6 hours release) was “anaphases looked abnormal” and the “chromosome segregation at mitosis” value (HL-60 cells [4]; 1 μM with caffeine for 2 hours after 6 hours release from aphidicolin) was “no normal anaphases or telophases could be observed”.
